# In publication PMC9699400 (Molecules, 2022):
# Several values for one entry are separate records, joined by “and”; a condition that tells them apart may be missing. Identical values can stand only once. Counter-ions that a name gives are not always drawn. Like-named read-outs stand apart in the source and are kept apart here. Marks after values point to notes of the source that are not given here.
# Legend:
# AChE [1] = molecular target: T1, AChE (Electrophorus electricus, UniProt O42275); experiment: Inhibitory type kinetics analysis (reversibility plots, Lineweaver-Burk); type: biochemical
# T1 construct: purchased Sigma-Aldrich Co. (St. Louis, MO, USA)
# Procedure: The type of inhibition was determined using the Lineweaver-Burk plot in double reciprocal form.
# AChE [2] = molecular target: T1, AChE; experiment: Time-course inactivation kinetics of AChE; type: biochemical; details: for Transition Free Energy Change ΔΔG°: ΔΔG° = −RTlnk
# Procedure: We determined enzyme activities at diverse contents every 3 min for 0–30 min and every 5 min for 30–70 min.
# AChE [3] = molecular target: T1, AChE; experiment: Fluorescence quenching of AChE; type: binding
# Procedure: After each drop, the solution was mixed and left for 3 min to balance the solution. The fluorescence emission spectra at 290 to 450 nm were scanned at an excitation wavelength of 280 nm, with emission and excitation slot widths of 2.5 nm.
# AChE [4] = molecular target: T1, AChE; experiment: CD spectra, secondary structure of AChE
# From the text: The MOS 450 CD spectrometer (Bio-Logic, Claix, France) was used to measure the CD spectra for AChE solution at 190 to 250 nm under ambient temperature. […] The method to analyze the content of specific secondary structures has been reported in our previous study.
# PC12 cells [5] = experiment: Quercetin-induced toxicity in PC12 cells (MTT); details: 1–80 µM, 24 h, n = 6
# Procedure: (§1) PC12 cells were procured from Nanjing KeyGen Biotech Co. Ltd. (Nanjing, China). The cells were maintained in high-glucose DMEM containing 10% fetal bovine serum (FBS) and 1% P-S and incubated under 5% CO2 and 37 °C. PC12 cells in the logarithmic phase were seeded in 96-well (approximately 2 × 10^4/well) or 24-well (approximately 1 × 10^5/well) culture plates, incubated for 24 h, followed by the replacement of the medium.
# [6] = test system: Aβ25–35-induced PC12 cells; experiment: Aβ25–35-induced PC12 cell viability (MTT); details: then 20 µM Aβ25–35 24 h, model group 51.43 ± 2.61
# Procedure: as §1
# (§2) Each group was provided with six duplicate wells based on different measurement indexes.
# PC12 cells were inoculated in 96-well plates for 24 h.
# [7] = test system: Aβ25–35-induced PC12 cells; experiment: MDA content in Aβ25–35-induced PC12 cells; type: cell-based; details: quercetin pretreatment (1–40 µM), 20 µM Aβ25–35 24 h; p < 0.01 relative to the model group
# Procedure: as §2
# (§3) For cell culture and grouping sample addition, please refer to Section 2.9. After incubation, the culture plate was centrifuged at 200× g for 5 min using a plate centrifuge, and the supernatant was discarded. Next, the cells were collected and broken by ultrasound and centrifuged at 3000 r/min at 4 °C for l0 min, and the supernatant was collected for subsequent assays. The OD was recorded at 532 and 405 nm, respectively, following the instructions mentioned in the manual for the MDA and GSH kits. Intracellular MDA content and GSH levels are expressed as percentages of the control.
# [8] = test system: Aβ25–35-induced PC12 cells; experiment: GSH level in Aβ25–35-induced PC12 cells; type: cell-based
# Procedure: as §2, §3
# AChE [9] = details: cited from earlier work
# PC12 cells [10] = details: 10 µM; ref 54 (Liu et al.); cited from earlier work
# [11] = molar ratio quercetin:AChE 10:1
# T1 sequence (O42275 24-633): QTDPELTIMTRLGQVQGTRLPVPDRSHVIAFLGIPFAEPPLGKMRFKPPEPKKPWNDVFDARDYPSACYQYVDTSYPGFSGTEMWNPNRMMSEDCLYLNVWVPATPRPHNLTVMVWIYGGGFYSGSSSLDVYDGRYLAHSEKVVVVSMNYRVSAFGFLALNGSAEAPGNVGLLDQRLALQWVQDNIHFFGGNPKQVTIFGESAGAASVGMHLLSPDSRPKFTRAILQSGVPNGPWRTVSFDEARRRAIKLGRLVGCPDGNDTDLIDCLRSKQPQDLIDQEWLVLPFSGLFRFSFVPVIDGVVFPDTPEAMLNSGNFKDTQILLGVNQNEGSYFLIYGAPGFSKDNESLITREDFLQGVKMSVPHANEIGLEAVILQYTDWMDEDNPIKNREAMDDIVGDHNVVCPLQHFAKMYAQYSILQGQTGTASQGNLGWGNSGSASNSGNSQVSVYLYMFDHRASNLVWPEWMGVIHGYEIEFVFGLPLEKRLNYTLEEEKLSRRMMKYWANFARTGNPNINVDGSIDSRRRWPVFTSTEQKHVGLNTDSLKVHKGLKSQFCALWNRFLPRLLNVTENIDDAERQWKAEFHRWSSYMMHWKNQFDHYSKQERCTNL
smiles,measurement,setting,value
"O=c1c(O)c(-c2ccc(O)c(O)c2)oc2cc(O)cc(O)c12 [quercetin, 3,3′,4′,5,7-pentahydroxyflavone]",type of inhibition,"AChE [1]; Lineweaver–Burk, c(AChE) = 0.57 nM, quercetin 0–12.0 µM",mixed inhibitory type
same,reversibility of inhibition,"AChE [1]; plots of v versus [AChE], c(ATCI) = 0.25 mM, quercetin 0–8.0 µM",reversible inhibitor
same,αKi (binding to AChE–ATCI complex),AChE [1]; secondary plot of Lineweaver–Burk y-intercepts,19.53 ± 0.65 µM
same,Inactivation Rate Constant k,AChE [2]; quercetin 1.5 µM,4.18 ± 0.06 ×10^−4 s^−1 and 4.18 ± 0.06 ^d ×10^−4 s^−1
same,Inactivation Rate Constant k,AChE [2]; quercetin 3.0 µM,5.73 ± 0.03 ^c ×10^−4 s^−1
same,Inactivation Rate Constant k,AChE [2]; quercetin 6.0 µM,6.04 ± 0.08 ^b ×10^−4 s^−1
same,Inactivation Rate Constant k,AChE [2]; quercetin 15.0 µM,6.41 ± 0.05 ×10^−4 s^−1 and 6.41 ± 0.05 ^a ×10^−4 s^−1
same,"bimolecular quenching rate constant Kq, magnitude order","AChE [3]; 25, 31 and 37 °C",~10^12 L mol^−1 s^−1
same,Gibbs free energy ∆G°,AChE [3]; 25 °C,-27.09 ± 0.03 kJ/mol
same,binding site quantity n,AChE [3]; 25 °C,0.75 ± 0.04
same,quenching constant KSV,"AChE [3]; 25 °C, pH 7.6",6.21 ± 0.08 ^a ×10^4 L mol^−1
same,Gibbs free energy ∆G°,AChE [3]; 31 °C,-26.37 ± 0.05 kJ/mol
same,binding site quantity n,AChE [3]; 31 °C,0.69 ± 0.01
same,quenching constant KSV,AChE [3]; 31 °C,4.81 ± 0.06 ^b ×10^4 L mol^−1
same,Gibbs free energy ∆G°,AChE [3]; 37 °C,-25.64 ± 0.07 kJ/mol
same,binding site quantity n,AChE [3]; 37 °C,0.67 ± 0.03
same,quenching constant KSV,AChE [3]; 37 °C,3.33 ± 0.05 ^c ×10^4 L mol^−1
same,enthalpy change ∆H°,"AChE [3]; van't Hoff equation, 25–37 °C",-63.39 ± 0.07 kJ/mol
same,entropy change ∆S°,"AChE [3]; van't Hoff equation, 25–37 °C",-121.8 ± 0.06 J mol^−1 K^−1
same,β-Sheet of AChE,"AChE [4]; molar ratio quercetin:AChE 2:1, free AChE 18.62 ± 0.06",17.31 ± 0.09 ^b %
same,β-Turn of AChE,"AChE [4]; molar ratio quercetin:AChE 2:1, free AChE 19.18 ± 0.28",20.15 ± 0.24 ^c %
same,Random Coil of AChE,"AChE [4]; molar ratio quercetin:AChE 2:1, free AChE 28.02 ± 0.65",25.41 ± 0.34 ^b %
same,α-Helix of AChE,"AChE [4]; molar ratio quercetin:AChE 2:1, free AChE 34.35 ± 0.74",37.13 ± 0.16 ^c %
same,Random Coil of AChE,AChE [4]; molar ratio quercetin:AChE 6:1,23.71± 0.28 ^c %
same,β-Sheet of AChE,AChE [4]; molar ratio quercetin:AChE 6:1,16.20 ± 0.17 ^c %
same,β-Turn of AChE,AChE [4]; molar ratio quercetin:AChE 6:1,21.62 ± 0.13 ^b %
same,Random Coil of AChE,AChE [4]; [11],20.19% and 20.19 ± 0.37 ^d %
same,α-Helix of AChE,AChE [4]; [11],41.51% and 41.51 ± 0.28 ^a %
same,β-Sheet of AChE,AChE [4]; [11],15.16% and 15.16 ± 0.14 ^d %
same,β-Turn of AChE,AChE [4]; [11],23.14% and 23.14 ± 0.32 ^a %
same,"cytotoxicity (cell viability, MTT)",PC12 cells [5],no toxic effect
same,"cell viability, % of the control group",[6]; pretreatment 1 µM,56.06 ± 3.82%
same,"cell viability, % of the control group",[6]; pretreatment 10 µM,62.14 ± 2.79%
same,"cell viability, % of the control group",[6]; pretreatment 20 µM,68.58 ± 2.12%
same,"cell viability, % of the control group",[6]; pretreatment 40 µM,78.61 ± 3.26%
same,"cell viability, % of the control group",[6]; pretreatment 80 µM,79.48 ± 4.32%
same,release of MDA,[7],inhibited
same,GSH levels versus model group,"[8]; 1 µM pretreatment, p > 0.05",no statistical difference
same,intracellular GSH levels versus model group,"[8]; 10, 20, and 40 µM pretreatment, dose-dependent",increased
"C[C@@H]1O[C@@H](Oc2c(-c3ccc(O)c(O)c3)oc3cc(O)cc(O)c3c2=O)[C@H](O)[C@H](O)[C@H]1O [quercitrin, reference compound]",IC50,AChE [9]; no reference at the value itself,94.5 µM
COc1ccc2c3c1O[C@H]1C[C@@H](O)C=C[C@@]31CCN(C)C2 [galantamine hydrobromide],protection of cells against Aβ25–35 neurotoxicity,PC12 cells [10],significantly protected
"O=C1c2c(O)cc(O)cc2OC(c2ccc(O)c(O)c2)C1O (stereo not drawn) [taxifolin, reference compound]",IC50,AChE [9],54 ± 1.58 µM
